Measurements as given in patent US20150038545A1, “HYDROXYPHENYL PYRROLE COMPOUNDS CONTAINING AN HYDROXAMIC ACID AS HDAC INHIBITORS AND MEDICINAL APPLICATIONS THEREOF” (UNIVERSIDAD DEL PAÍS VASCO, priority 2011, published 2015).

Each molecule was assayed against T1, Human HDAC6 (Homo sapiens, UniProt Q9UBN7) (assay: In vitro HDAC6 inhibition, fluorogenic peptide assay). Settings: read-out: IC50 (nM) of enzyme activity HDAC6.
T1 construct: Full length with N-terminal GST tag, MW=159 kDa; GST (N); purchased BioMol SE-508; host or cells: Sf9 cells, baculovirus
T1 sequence (Q9UBN7 1-1215): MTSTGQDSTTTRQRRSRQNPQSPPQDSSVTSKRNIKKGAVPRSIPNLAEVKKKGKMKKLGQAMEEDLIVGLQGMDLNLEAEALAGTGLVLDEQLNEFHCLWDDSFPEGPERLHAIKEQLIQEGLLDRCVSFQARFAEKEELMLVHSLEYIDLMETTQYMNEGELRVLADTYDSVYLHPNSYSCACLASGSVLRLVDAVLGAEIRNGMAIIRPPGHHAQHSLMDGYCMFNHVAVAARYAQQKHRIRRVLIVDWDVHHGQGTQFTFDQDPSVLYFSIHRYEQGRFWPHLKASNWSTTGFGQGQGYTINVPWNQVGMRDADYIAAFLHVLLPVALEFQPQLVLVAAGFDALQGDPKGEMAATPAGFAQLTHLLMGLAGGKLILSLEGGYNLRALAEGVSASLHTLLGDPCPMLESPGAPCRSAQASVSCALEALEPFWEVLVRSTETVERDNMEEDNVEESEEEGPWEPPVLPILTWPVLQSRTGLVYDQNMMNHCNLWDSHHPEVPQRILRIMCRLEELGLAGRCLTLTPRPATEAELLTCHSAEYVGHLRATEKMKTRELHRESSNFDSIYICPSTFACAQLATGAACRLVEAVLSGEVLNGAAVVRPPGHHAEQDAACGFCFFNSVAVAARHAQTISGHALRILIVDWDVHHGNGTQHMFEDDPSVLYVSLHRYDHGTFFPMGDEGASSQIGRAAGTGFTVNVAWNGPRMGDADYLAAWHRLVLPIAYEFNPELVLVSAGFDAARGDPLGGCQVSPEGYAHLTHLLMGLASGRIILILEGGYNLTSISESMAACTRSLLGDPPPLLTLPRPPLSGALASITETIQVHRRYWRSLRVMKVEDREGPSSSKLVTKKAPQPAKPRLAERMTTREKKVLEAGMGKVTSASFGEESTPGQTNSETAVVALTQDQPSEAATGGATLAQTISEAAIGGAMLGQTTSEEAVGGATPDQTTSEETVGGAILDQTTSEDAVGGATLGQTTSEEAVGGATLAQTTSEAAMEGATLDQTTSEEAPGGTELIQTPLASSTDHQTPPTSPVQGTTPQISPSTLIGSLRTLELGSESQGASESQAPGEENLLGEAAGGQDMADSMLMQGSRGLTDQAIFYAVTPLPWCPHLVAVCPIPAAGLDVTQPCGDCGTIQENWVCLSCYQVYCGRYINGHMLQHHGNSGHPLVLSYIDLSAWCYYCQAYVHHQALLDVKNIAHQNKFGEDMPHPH
Assay type: biochemical
Method: All HDAC assays were performed using acetylated AMC-labeled peptide substrate: • Substrate for isoforms HDAC1, 2, 3, 4, 5, 6, 7, 9, 10, 11 and HeLa nuclear extract assays: Acetylated fluorogenic peptide from p53 residues 379-382 (RHKKAc) (BioMol. Cat. # KI-104). • Substrate for HDAC8 assays: Acetylated fluorogenic peptide from p53 residues 379-382 (RHKAcKAc) (BioMol. Cat. # KI-178).
Enzymes: • HDAC1 assay: 75 nM Human HDAC1 (GenBank Accession No. NM_004964): Full length with C-terminal GST tag, MW=79.9 kDa, expressed by baculovirus expression system in Sf9 cells (BioMol. Cat. # SE-456). • HDAC2 assay: 5 nM Human HDAC2 (GenBank Accession No. Q92769): Full length with C-terminal His tag, MW=60 kDa, expressed by baculovirus expression system in Sf9 cells (BioMol. Cat. # SE-500). • HDAC3 assay: 2.3 nM Human HDAC3/NcoR2 (GenBank Accession No. NM_003883 for HDAC3, GenBank Accession No.NM_006312 for NcoR2): Complex of human HDAC3, full length with C-terminal His tag, MW=49.7 kDa, and human NCOR2, N-terminal GST tag, MW=39 kDa, co-expressed in baculovirus expression system (BioMol. Cat. # SE-507). • HDAC4 assay: 266 nM Human HDAC4 (GenBank Accession No. NM_006037): Amino acids 627-1085 with N-terminal GST tag, MW=75.2 kDa, expressed in baculovirus expression system (BioMol, Hamburg, Germany). • HDAC5 assay: 588 nM Human HDAC5 (GenBank Accession No. NM_001015053): Full length with Nterminal GST tag, MW=150 kDa, expressed by baculovirus expression system in Sf9 cells (BioMol, Hamburg, Germany). • HDAC6 assay: 13 nM Human HDAC6 (GenBank Accession No. BC069243): Full length with N-terminal GST tag, MW=159 kDa, expressed by baculovirus expression system in Sf9 cells (BioMol. Cat. # SE-508). • HDAC7 assay: 962 nM Human HDAC7 (GenBank Accession No. AY302468): Amino acids 518-end with N-terminal GST tag, MW=78 kDa, expressed in baculovirus expression system (BioMol, Hamburg, Germany). • HDAC8 assay: 119 nM Human HDAC8 (GenBank Accession No. NM018486): Full length, MW=42 kDa, expressed in an E. coli expression system (BioMol. Cat. # SE-145). • HDAC9 assay: 986 nM Human HDAC9 (GenBank Accession No. NM178423): Amino acids 604-1066 with C-terminal His tag, MW=50.7 kDa, expressed in baculovirus expression system (BioMol, Hamburg, Germany). • HDAC10 assay: 781 nM Human HDAC10 (GenBank Accession No. NM_032019): Amino acids 1-631 with Nterminal GST tag, MW=96 kDa, expressed by baculovirus expression system in Sf9 cells (BioMol. Cat. # SE-559). • HDAC11 assay: 781 nM Human HDAC11 (GenBank Accession No. NM_BC009676) with N-terminal GST tag, MW=66 kDa, expressed in baculovirus expression system (BioMol. Cat. # SE-560). • HeLaNuclear Extract assay: 25 ng/μl Nuclear Extract from HeLa Cells: Prepared by high salt extraction of HeLa nuclei (human cervical cancer cell line), this extract is a rich source of HDAC activity (BioMol. Cat. # KI-140).
The reactions were carried out in a 96-well microplate for fluorometry in a 50 μl reaction volume. After the deacetylation reaction, Fluor-de-Lys-Developer (BioMol Cat. # KI-105) was added to each well to digest the deacetylated substrate, thus producing the fluorescent signal. The reaction was allowed to develop for 45 minutes at 30° C. with 5% CO2; then the fluorescent signal was measured with an excitation wavelength at 360 nm and an emission wavelength at 460 nm in a microplate-reading fluorometer (GeminiXS; Molecular Devices, Sunnyvale, Calif.). […] All experiments were performed in triplicate. IC50 was calculated by fitting the experimental data to a dose-response curve. DMSO was used as negative control; Trichostatin A (Biomol Cat. # GR-309) was used as positive control inhibitor.

Compound	IC50 [nM]
COc1ccc(-c2cc(-c3ccccc3)c(C(=O)NCCCCCC(=O)NO)[nH]2)cc1 [Compound B, N-[6-(hydroxyamino)-6-oxohexyl]-5-(4-methoxyphenyl)-3-phenyl-1H-pyrrole-2-carboxamide, reference compound]	32
COc1ccc(-c2cc(-c3ccccc3)[nH]c2C(=O)NCCCCCC(=O)NO)cc1 [Compound A, N-[6-(hydroxyamino)-6-oxohexyl]-3-(4-methoxyphenyl)-5-phenyl-1H-pyrrole-2-carboxamide, reference compound]	20
O=C(CCCCCNC(=O)c1[nH]c(-c2ccc(O)cc2)cc1-c1ccsc1)NO [Example 6, N-(5-(hydroxycarbamoyl)pentyl)-5-(4-hydroxyphenyl)-3-(3-thienyl)-1H-pyrrole-2-carboxamide]	1.6
O=C(CCCCCNC(=O)c1[nH]c(-c2ccccc2)cc1-c1ccc(O)cc1)NO [Example 1, N-(6-(hydroxyamino)-6-oxohexyl)-3-(4-hydroxyphenyl)-5-phenyl-1H-pyrrole-2-carboxamide]	14
O=C(CCCCCNC(=O)c1[nH]c(-c2ccc(O)cc2)cc1-c1ccccc1)NO [Example 2, N-(6-(hydroxyamino)-6-oxohexyl)-5-(4-hydroxyphenyl)-3-phenyl-1H-pyrrole-2-carboxamide]	7.6
O=C(CCCCCNC(=O)c1[nH]c(-c2ccsc2)cc1-c1ccc(O)cc1)NO [Example 3, N-(5-(hydroxycarbamoyl)pentyl)-3-(4-hydroxyphenyl)-5-(3-thienyl)-1H-pyrrole-2-carboxamide]	12
O=C(CCCCCNC(=O)c1[nH]c(-c2ccc(O)cc2)cc1-c1ccoc1)NO [Example 5, 3-(3-furyl)-N-(5-(hydroxycarbamoyl)pentyl)-5-(4-hydroxy-phenyl)-1H-pyrrole-2-carboxamide]	0.6
O=C(CCCCCNC(=O)c1[nH]c(-c2ccoc2)cc1-c1ccc(O)cc1)NO [Example 4, 5-(3-furyl)-N-(5-(Hydroxycarbamoyl)pentyl)-3-(4-hydroxy-phenyl)-1H-pyrrole-2-carboxamide]	9.3
